The source made the active and inactive calls. No cut-off for these calls is given here.
Legend:
Escherichia coli [1] = experiment: Bio-antimutagenic activity against UV-induced Escherichia coli WP2 B/r Trp; Not active; format: functional, organism-based
Escherichia coli [2] = experiment: Microbicidal activity against UV-induced Escherichia coli WP2 B/r Trp at a dose of 150 ug/mL; Not active; format: functional, organism-based
Escherichia coli [3] = experiment: Compound was tested for half inhibition-dose of mutation frequency of UV-induced Escherichia coli WP2 B/r Trp; format: functional
Escherichia coli [4] = experiment: Bio-antimutagenic activity against UV-induced Escherichia coli WP2 B/r Trp; format: functional
Escherichia coli [5] = experiment: Microbicidal activity against UV-induced Escherichia coli WP2 B/r Trp at a dose of 120 ug/mL; Not active; format: functional, organism-based

Row | SMILES | AD50 (Escherichia coli [1]) | Activity (Escherichia coli [2]) | AD50 (Escherichia coli [3]) | AD50 (Escherichia coli [4]) | Activity (Escherichia coli [5])
1 | CCCCCCCC[C@@H](O)/C=C1/CCCC1=O | inactive | inactive |  |  | 
2 | CCCCCC[C@@H](O)/C=C1/CCCC1=O | inactive | inactive |  |  | 
3 | CCCCCCC(O)/C=C1/CCCC1=O (stereo not given) |  |  | 79 µg/mL |  | 
4 | CCCCCC[C@H](O)/C=C1/CCCC1=O |  |  |  | 50 µg/mL | inactive
5 | CCCCCCCC[C@H](O)/C=C1/CCCC1=O |  |  |  | 50 µg/mL | inactive
6 | CCCCCCCCC(O)/C=C1/CCCC1=O (stereo not given) |  |  | 6.7 µg/mL |  | 
